# Patent US7615651B2, “Diaryl, dipyridinyl and aryl-pyridinyl derivatives and uses thereof” (Pfizer Inc., priority 2006, dated 2009)
# Structures can show the parent of a compound that is named as a salt. Where two headings read alike, the source gives them in different places.
# Assays:
# [1] = target: T1, opioid receptor kappa (Homo sapiens, UniProt P41145); experiment: GTPγ[35S] binding assay, antagonism of dynorphin-A; type: biochemical
# T1 construct: expressed in transfected cells
# In short: (§1)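 Membranes with […] GTPγ[35S] in Tris pH 7.4 buffer with MgCl2, NaCl, 30 μM GDP; antagonist (10^−10–10^−5 M) preincubated 10 min at 30 °C, then challenged with BW-373U86 1 nM (delta), dynorphin-A 10 nM (kappa) or endorphin 1 μM (mu) for 1 h at 30 °C. Scintillation read-out; Ki derived.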
# [2] = Spontaneous food intake model; type: in vivo, Sprague-Dawley rats; details: rats dosed before onset of dark cycle, compared with vehicle
# Protocol: Male Sprague-Dawley rats may be obtained from Charles River Laboratories, Inc. (Wilmington, Mass.). The rats were individually housed and fed powdered chow. They were maintained on a 12 hour light/dark cycle and received food and water ad libitum. The animals were acclimated to the vivarium for a period of one week before testing is conducted. Rats were transferred to individual test cages 30 hours before the study. The rats were administered test compound or vehicle alone (no compound) 15-30 minutes prior to the onset of the dark cycle. The test compounds were dosed at ranges between 0.1 and 100 mg/kg depending upon the compound. The standard vehicle was 0.5% (w/v) methylcellulose or 30% β-cyclodextrin in water and the standard route of administration was oral. However, different vehicles and routes of administration are used to accommodate various compounds when required. Food intake was monitored using an automated Columbus Instruments system (Columbus, Ohio). Individual rat food intake was recorded continuously at 10-minute intervals, starting at the time of dosing, for a period of at least 12 hours. Compound efficacy was determined by comparing the food intake pattern of compound-treated rats to vehicle.
# [3] = target: T2, opioid receptor delta (Homo sapiens, UniProt P41143); experiment: GTPγ[35S] binding assay, antagonism of BW-373U86; type: biochemical
# T2 construct: expressed in transfected cells
# T2 sequence (P41143 whole entry): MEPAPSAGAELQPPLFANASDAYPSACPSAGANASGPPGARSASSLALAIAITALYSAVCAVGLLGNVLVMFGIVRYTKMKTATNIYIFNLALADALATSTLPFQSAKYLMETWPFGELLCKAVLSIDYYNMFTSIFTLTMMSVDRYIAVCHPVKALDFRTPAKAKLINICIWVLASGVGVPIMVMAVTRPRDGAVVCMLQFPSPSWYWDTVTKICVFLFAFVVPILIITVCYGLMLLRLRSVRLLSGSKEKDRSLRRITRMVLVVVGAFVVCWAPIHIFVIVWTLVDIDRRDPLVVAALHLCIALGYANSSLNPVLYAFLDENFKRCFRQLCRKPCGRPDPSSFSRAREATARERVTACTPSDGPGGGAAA
# In short: as §1
# [4] = target: T3, opioid receptor mu (Homo sapiens, UniProt P35372); experiment: GTPγ[35S] binding assay, antagonism of endorphin; type: biochemical
# T3 construct: expressed in transfected cells
# T3 sequence (P35372 whole entry): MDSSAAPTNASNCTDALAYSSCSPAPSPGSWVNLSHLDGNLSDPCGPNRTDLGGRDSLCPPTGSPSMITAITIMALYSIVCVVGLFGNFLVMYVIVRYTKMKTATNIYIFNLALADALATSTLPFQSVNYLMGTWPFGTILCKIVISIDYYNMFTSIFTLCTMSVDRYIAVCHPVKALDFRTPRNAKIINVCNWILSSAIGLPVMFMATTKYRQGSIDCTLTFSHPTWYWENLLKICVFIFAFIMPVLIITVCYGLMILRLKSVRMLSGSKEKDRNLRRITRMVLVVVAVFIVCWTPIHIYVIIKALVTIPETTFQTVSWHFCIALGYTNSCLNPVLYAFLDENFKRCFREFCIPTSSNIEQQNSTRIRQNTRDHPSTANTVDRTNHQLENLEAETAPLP
# In short: as §1
# [5] = average Ki, antagonism of dynorphin-A (10 nM) stimulated GTPγ[35S] binding, kappa opioid receptor membranes, read-out: Kappa functional (GTPγ[35S] binding Ki)
# [6] = average Ki, antagonism of BW-373U86 (1 nM) stimulated GTPγ[35S] binding, delta opioid receptor membranes, read-out: Delta functional (GTPγ[35S] binding Ki)
# [7] = average Ki, antagonism of endorphin (1 μM) stimulated GTPγ[35S] binding, mu opioid receptor membranes, read-out: Mu functional (GTPγ[35S] binding Ki)
# [8] = read-out: Kappa functional (GTPγ[35S] binding Ki)
# [9] = read-out: Delta functional (GTPγ[35S] binding Ki)
# [10] = read-out: Mu functional (GTPγ[35S] binding Ki)
# [11] = read-out: Kappa functional Ki (GTPγ[35S] binding)
# [12] = read-out: Delta functional Ki (GTPγ[35S] binding)
# [13] = read-out: Mu functional Ki (GTPγ[35S] binding)
# T1 sequence (P41145 whole entry): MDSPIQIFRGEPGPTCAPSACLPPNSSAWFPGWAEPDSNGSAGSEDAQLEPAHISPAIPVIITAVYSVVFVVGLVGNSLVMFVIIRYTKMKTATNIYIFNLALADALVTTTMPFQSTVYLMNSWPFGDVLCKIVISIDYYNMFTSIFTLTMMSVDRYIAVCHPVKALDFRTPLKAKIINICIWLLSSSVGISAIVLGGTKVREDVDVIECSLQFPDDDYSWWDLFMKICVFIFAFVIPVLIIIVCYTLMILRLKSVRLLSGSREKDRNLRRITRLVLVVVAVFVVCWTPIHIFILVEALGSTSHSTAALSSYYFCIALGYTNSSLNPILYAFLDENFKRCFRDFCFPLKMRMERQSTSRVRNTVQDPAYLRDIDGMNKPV
smiles,measurement,setting,value
Cc1cc(C(N)=O)ccc1-c1ccc(CNCCC(C)C)cc1F.Cl [1B-03],Ki,[1]; [5],3.32 nM
same,food intake,[2],significant reduction in food intake
same,Ki,[3]; [6],5.09 nM
same,Ki,[4]; [7],8.96 nM
Cc1cc(C(N)=O)ccc1-c1ccc(CNCCCc2ccccc2)cc1.Cl [4B-08],Ki,[1]; [5],2.19 nM
same,food intake,[2],significant reduction in food intake
same,Ki,[3]; [6],0.838 nM
same,Ki,[4]; [7],2.84 nM
"Cc1cc(C(N)=O)ccc1-c1cc(F)c(CNCCC(C)C)c(F)c1.Cl [E1-01, 3′,5′Difluoro-2-methyl-4′-[(3-methyl-butylamino)-methyl]-biphenyl-4-carboxylic acid amide hydrochloride salt]",Ki,[1]; [8],2.64 nM
same,food intake,[2],significant reduction in food intake
same,Ki,[3]; [9],1.7 nM
same,Ki,[4]; [10],2.1 nM
"Cc1cc(C(N)=O)ccc1-c1ccc(CNCCC(C)C)cc1 [E4-01, 2-Methyl-4′-[(3-methyl-butylamino)-methyl]-biphenyl-4-carboxylic acid amide]",Ki,[1]; [5],2.4 nM
same,food intake,[2],significant reduction in food intake
same,Ki,[3]; [6],20 nM
same,Ki,[4]; [7],6.5 nM
CC(C)CCNCc1ccc(-c2cc(C(N)=O)ccc2F)c(F)c1.Cl [1A-07],Ki,[1]; [5],14.3 nM
same,food intake,[2],significant reduction in food intake
same,Ki,[3]; [6],9.49 nM
same,Ki,[4]; [7],14.5 nM
"Cc1cc(C(N)=O)ccc1-c1ccc(CNCCC(C)C)c(Cl)c1 [E3-01, hydrochloride salt]",Ki,[1]; [8],1.73 nM
same,food intake,[2],significant reduction in food intake
same,Ki,[3]; [9],1.53 nM
same,Ki,[4]; [10],2.82 nM
Cc1cc(C(N)=O)ccc1-c1ccc(CNC2Cc3ccccc3C2)cc1.Cl [4B-04],Ki,[1]; [5],0.406 nM
same,food intake,[2],significant reduction in food intake
same,Ki,[3]; [6],0.185 nM
same,Ki,[4]; [7],0.0925 nM
NC(=O)c1cccc(-c2ccc(CN[C@H]3c4ccccc4C[C@H]3O)cc2Cl)c1 [6A-03],Ki,[1]; [11],9.35 nM
same,Ki,[3]; [12],35.9 nM
same,Ki,[4]; [13],2.94 nM
COCCNCc1c(F)cc(-c2ccc(C(N)=O)cc2C)cc1F [1B-09],Ki,[1]; [5],17.9 nM
same,Ki,[3]; [6],11 nM
same,Ki,[4]; [7],70.5 nM
Cc1cc(C(N)=O)ccc1-c1ccc(CN[C@@H]2CCc3ccccc32)cc1 [4B-33],Ki,[1]; [8],0.911 nM
same,Ki,[3]; [9],2.49 nM
same,Ki,[4]; [10],4.95 nM
Cc1cc(CNCC2CCOCC2)ccc1-c1ccc(C(N)=O)cc1C [4B-71],Ki,[1]; [11],6.91 nM
same,Ki,[3]; [12],6.2 nM
same,Ki,[4]; [13],8.37 nM
Cc1cc(CNCC2CCCO2)ccc1-c1ccc(C(N)=O)cc1C (centres unmarked) [4B-72],Ki,[1]; [11],5.44 nM
same,Ki,[3]; [12],13 nM
same,Ki,[4]; [13],9.83 nM
CC1(C)OCC(CNCc2ccc(-c3cccc(C(N)=O)c3)c(Cl)c2)O1 (centres unmarked) [4A-10],Ki,[1]; [5],31.3 nM
same,Ki,[3]; [6],353 nM
same,Ki,[4]; [7],8.49 nM
Cc1cc(C(N)=O)ccc1-c1ccc(CNCCC(C)C)c(F)c1 [1B-08],Ki,[1]; [5],1.89 nM
same,Ki,[3]; [6],1.97 nM
same,Ki,[4]; [7],3.24 nM
Cc1cc(C(N)=O)ccc1-c1ccc(CNC2(c3cccc(Cl)c3)CC2)cc1 [4B-23],Ki,[1]; [8],14.2 nM
same,Ki,[3]; [9],46.3 nM
same,Ki,[4]; [10],266 nM
CC(C)CCNCc1ccc(-c2cc(C(N)=O)ccc2F)cc1F [1A-12],Ki,[1]; [5],34.9 nM
same,Ki,[3]; [6],17.2 nM
same,Ki,[4]; [7],41.1 nM
Cc1cc(C(N)=O)ccc1-c1ccc(CN[C@@H]2CCCc3ccccc32)cc1 [4B-28],Ki,[1]; [8],4.12 nM
same,Ki,[3]; [9],26.3 nM
same,Ki,[4]; [10],26.1 nM
CC(C)CCNCc1cc(F)c(-c2cc(C(N)=O)ccc2F)cc1F [1A-09],Ki,[1]; [5],51.1 nM
same,Ki,[3]; [6],16.7 nM
same,Ki,[4]; [7],64.8 nM
CC(C)CCNCc1ccc(-c2ccc(C(N)=O)cc2Cl)c(F)c1 [4B-61],Ki,[1]; [11],4.92 nM
same,Ki,[3]; [12],12.6 nM
same,Ki,[4]; [13],25.6 nM
Cc1cc(C(N)=O)cc(C)c1-c1ccc(CNC2Cc3ccccc3C2)cc1 [4B-32],Ki,[1]; [8],0.14 nM
same,Ki,[3]; [9],0.0696 nM
same,Ki,[4]; [10],0.0492 nM
Cc1cc(C(N)=O)ccc1-c1ccc(CN[C@H](C)c2ccccc2)cc1 [4B-41],Ki,[1]; [11],13.5 nM
same,Ki,[3]; [12],14.1 nM
same,Ki,[4]; [13],61.4 nM
Cc1cc(C(N)=O)ccc1-c1ccc(CNC(C)c2ccc3ccccc3c2)cc1 (centres unmarked) [4B-27],Ki,[1]; [8],2.86 nM
same,Ki,[3]; [9],2.98 nM
same,Ki,[4]; [10],14.3 nM
Cc1cc(CNC2Cc3ccccc3C2)cc(Cl)c1-c1ccc(C(N)=O)cc1Cl [4B-82],Ki,[1]; [11],1.77 nM
same,Ki,[3]; [12],0.15 nM
same,Ki,[4]; [13],0.0287 nM
NC(=O)c1cccc(-c2ccc(CNC[C@@H]3CCCO3)cc2Cl)c1 [4A-07],Ki,[1]; [8],14.7 nM
same,Ki,[3]; [9],24.3 nM
same,Ki,[4]; [10],9.03 nM
Cc1cc(C(N)=O)ccc1-c1ccc(CNCCC2CC2)cc1 [4B-11],Ki,[1]; [8],5.7 nM
same,Ki,[3]; [9],7.05 nM
same,Ki,[4]; [10],8.38 nM
NC(=O)c1ccc(-c2ccc(CNCCC3CCCC3)cc2)c(Cl)c1 [4B-39],Ki,[1]; [11],1.28 nM
same,Ki,[3]; [12],0.612 nM
same,Ki,[4]; [13],1.87 nM
Cc1cc(C(N)=O)ccc1-c1ccc(CNCc2cccc(Cl)c2)cc1 [4B-10],Ki,[1]; [8],1.58 nM
same,Ki,[3]; [9],0.602 nM
same,Ki,[4]; [10],0.94 nM
NC(=O)c1cccc(-c2ccc(CNCC3CCCOC3)cc2Cl)c1 (centres unmarked) [4A-06],Ki,[1]; [8],14.7 nM
same,Ki,[3]; [9],23.6 nM
same,Ki,[4]; [10],12.5 nM
NC(=O)c1ccc(-c2ccc(CNC[C@H]3CCCO3)cc2Cl)c(Cl)c1 [4B-78],Ki,[1]; [11],8.48 nM
same,Ki,[3]; [12],18.8 nM
same,Ki,[4]; [13],35.1 nM
CC(C)CCNCc1ccc(-c2cccc(C(N)=O)c2)cc1O [1A-06],Ki,[1]; [5],101 nM
same,Ki,[3]; [6],0.0351 nM
same,Ki,[4]; [7],52.3 nM
Cc1cc(C(N)=O)ccc1-c1ccc(CNCc2ccccn2)cc1 [4B-44],Ki,[1]; [11],25.7 nM
same,Ki,[3]; [12],26.1 nM
same,Ki,[4]; [13],61.7 nM
Cc1cc(C(N)=O)ccc1-c1ccc(CNCCOC(C)C)cc1 [4B-06],Ki,[1]; [8],8.53 nM
same,Ki,[3]; [9],6.42 nM
same,Ki,[4]; [10],10.3 nM
Cc1cc(C(N)=O)ccc1-c1ccc(CNC2Cc3ccccc3C2)nc1 [1D-04],Ki,[1]; [8],1.88 nM
same,Ki,[3]; [9],0.868 nM
same,Ki,[4]; [10],0.715 nM
Cc1cc(C(N)=O)ccc1-c1ccc(CNC2(c3ccccc3)CC2)cc1 [4B-24],Ki,[1]; [8],400 nM
same,Ki,[3]; [9],22.7 nM
same,Ki,[4]; [10],1290 nM
"Cc1cc(CNCCC(C)C)ccc1-c1ccc(C(N)=O)cc1C.Cl [E2-01, 2,2′-Dimethyl-4′-[(3-methyl-butylamino)-methyl]-biphenyl-4-carboxylic acid amide hydrochloride salt]",Ki,[1]; [8],2.06 nM
same,food intake,[2],significant reduction in food intake
same,Ki,[3]; [9],1.38 nM
same,Ki,[4]; [10],0.886 nM
CC(C)CCNCc1ccc(-c2c(F)cc(C(N)=O)cc2F)cc1 [4B-12],Ki,[1]; [8],26.8 nM
same,Ki,[3]; [9],16.9 nM
same,Ki,[4]; [10],48.4 nM
CS(=O)(=O)Nc1ccc(-c2ccc(CNC3Cc4ccccc4C3)c(F)c2)cc1 [8B-02],Ki,[1]; [11],582 nM
same,Ki,[3]; [12],39.8 nM
same,Ki,[4]; [13],9.29 nM
NC(=O)c1cccc(-c2ccc(CNCCc3cscn3)cc2Cl)c1 [6A-02],Ki,[1]; [11],473 nM
same,Ki,[3]; [12],23.5 nM
same,Ki,[4]; [13],12.4 nM
Cc1cc(C(N)=O)ccc1-c1c(F)cc(CNC2Cc3ccccc3C2)cc1F [1B-04],Ki,[1]; [8],20.1 nM
same,Ki,[3]; [9],5.28 nM
same,Ki,[4]; [10],2.66 nM
